Here are results for 19 molecules from patent publication US20240101540A1, “TARGETED PROTEIN DEGRADATION OF PARP14 FOR USE IN THERAPY” (Ribon Therapeutics, Inc., priority 2022, published 2024).

Where a name gives a salt, the structure may show the parent alone. Read-outs that look alike come from different tables or passages of the source.

This assay has as its target T1, catalytic domain of human PARP14 (residues 1611 to 1801) with NanoLuc tag (Homo sapiens, UniProt Q460N5).
T1 construct: expressed in transfected cells; host or cells: HEK-293T cells (ATCC), pcDNA3.1(-) vector
T1 sequence (Q460N5 1611-1801): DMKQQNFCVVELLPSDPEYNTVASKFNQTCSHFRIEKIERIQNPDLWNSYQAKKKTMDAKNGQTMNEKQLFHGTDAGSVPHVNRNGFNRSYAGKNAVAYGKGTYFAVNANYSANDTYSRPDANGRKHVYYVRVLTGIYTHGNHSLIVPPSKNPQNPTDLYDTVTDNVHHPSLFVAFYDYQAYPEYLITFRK
The experiment in a line: NanoLuc assay for the degradation of PARP14 (NanoLuc-tagged PARP14 overexpressed in HEK-293T cells, 2 hours). The note with it: Assay A (Example A): NanoLuc-tagged PARP14 degradation in HEK-293T cells. Type of assay: cell-based.

With `O=C1CCC(Nc2ccc(N3C4CC3CN(CCN3CCC(COc5cc(F)c6c(=O)[nH]c(CSC7CCOCC7)nc6c5)CC3)C4)cc2)C(=O)N1` (stereo not shown) [Example 71, 3-((4-(3-(2-(4-(((5-fluoro-4-oxo-2-(((tetrahydro-2H-pyran-4-yl)thio)methyl)-3,4-dihydroquinazolin-7-yl)oxy)methyl)piperidin-1-yl)ethyl)-3,6-diazabicyclo[3.1.1]heptan-6-yl)phenyl)amino)piperidine-2,6-dione], where the note is “read-out: DC50”, the DC50 (as a rule, the concentration giving 50% degradation) is below 100 nM.
In the case of `O=C1CCC(N2C(=O)c3ccc(C#CC4CCN(CCN5CCC(COc6cc(F)c7c(=O)[nH]c(CSC8CCOCC8)nc7c6)CC5)CC4)cc3C2=O)C(=O)N1` (stereo not shown) [Example 72, 2-(2,6-dioxopiperidin-3-yl)-5-((1-(2-(4-(((5-fluoro-4-oxo-2-(((tetrahydro-2H-pyran-4-yl)thio)methyl)-3,4-dihydroquinazolin-7-yl)oxy)methyl)piperidin-1-yl)ethyl)piperidin-4-yl)ethynyl)isoindoline-1,3-dione], the DC50 (read-out: DC50) is below 100 nM.
With `O=C1CCC(Nc2ccc(N3CC4CC(C3)N4CCN3CCC(COc4cc(F)c5c(=O)[nH]c(CSC6CCOCC6)nc5c4)CC3)cc2)C(=O)N1` (stereo not shown) [Example 73, 3-((4-(6-(2-(4-(((5-fluoro-4-oxo-2-(((tetrahydro-2H-pyran-4-yl)thio)methyl)-3,4-dihydroquinazolin-7-yl)oxy)methyl)piperidin-1-yl)ethyl)-3,6-diazabicyclo[3.1.1]heptan-3-yl)phenyl)amino)piperidine-2,6-dione], under “read-out: DC50”, the 50% degradation concentration (DC50) was below 100 nM.
Turning to `Cn1nc(N2CCC(=O)NC2=O)c2ccc(C3CCN(CCN4CCC(COc5cc(F)c6c(=O)[nH]c(CSC7CCOCC7)nc6c5)CC4)CC3)cc21` [Example 74, 1-(6-(1-(2-(4-(((5-fluoro-4-oxo-2-(((tetrahydro-2H-pyran-4-yl)thio)methyl)-3,4-dihydroquinazolin-7-yl)oxy)methyl)piperidin-1-yl)ethyl)piperidin-4-yl)-1-methyl-1H-indazol-3-yl)dihydropyrimidine-2,4(1H,3H)-dione], the DC50 (read-out: DC50) was below 100 nM.
With `Cn1nc(N2CCC(=O)NC2=O)c2ccc(N3CCN(CCN4CCC(COc5cc(F)c6c(=O)[nH]c(CSC7CCOCC7)nc6c5)CC4)CC3)cc21` [Example 75, 1-(6-(4-(2-(4-(((5-fluoro-4-oxo-2-(((tetrahydro-2H-pyran-4-yl)thio)methyl)-3,4-dihydroquinazolin-7-yl)oxy)methyl)piperidin-1-yl)ethyl)piperazin-1-yl)-1-methyl-1H-indazol-3-yl)dihydropyrimidine-2,4(1H,3H)-dione], under “read-out: DC50”, the DC50 is below 100 nM.
Turning to `O=C1CCC(Nc2ccc(O[C@@H]3C[C@@H]4CN(CCN5CCC(COc6cc(F)c7c(=O)[nH]c(CSC8CCOCC8)nc7c6)CC5)C[C@@H]4C3)cc2)C(=O)N1` (stereo partly drawn) [Example 76, 3-((4-(((3aR,51,6aS)-2-(2-(4-(((5-fluoro-4-oxo-2-(((tetrahydro-2H-pyran-4-yl)thio)methyl)-3,4-dihydroquinazolin-7-yl)oxy)methyl)piperidin-1-yl)ethyl)octahydrocyclopenta[c]pyrrol-5-yl)oxy)phenyl)amino)piperidine-2,6-dione], the DC50 (read-out: DC50) is below 100 nM.
Turning to `O=C1CCN(c2ccc(C3CCN(CCN4CCC(COc5cc(F)c6c(=O)[nH]c(CSC7CCOCC7)nc6c5)CC4)CC3)cc2)C(=O)N1` [Example 77, 1-(4-(1-(2-(4-(((5-fluoro-4-oxo-2-(((tetrahydro-2H-pyran-4-yl)thio)methyl)-3,4-dihydroquinazolin-7-yl)oxy)methyl)piperidin-1-yl)ethyl)piperidin-4-yl)phenyl)dihydropyrimidine-2,4(1H,3H)-dione], the DC50 (read-out: DC50) was below 100 nM.
As for `Cn1c(=O)n(C2CCC(=O)NC2=O)c2ccc(C3CCN(CCN4CCC(COc5cc(F)c6c(=O)[nH]c(CSC7CCOCC7)nc6c5)CC4)CC3)cc21` (stereo not shown) [Example 78, 3-(5-(1-(2-(4-(((5-fluoro-4-oxo-2-(((tetrahydro-2H-pyran-4-yl)thio)methyl)-3,4-dihydroquinazolin-7-yl)oxy)methyl)piperidin-1-yl)ethyl)piperidin-4-yl)-3-methyl-2-oxo-2,3-dihydro-1H-benzo[d]imidazol-1-yl)piperidine-2,6-dione], where the note is “read-out: DC50”, the DC50 was below 100 nM.
With `O=C1CCC(N2C(=O)c3ccc(OC4CC(CN5CCC(COc6cc(F)c7c(=O)[nH]c(CSC8CCOCC8)nc7c6)CC5)C4)cc3C2=O)C(=O)N1` (stereo not shown) [Example 79a, 2-(2,6-dioxopiperidin-3-yl)-5-((1r,3r)-3-((4-(((5-fluoro-4-oxo-2-(((tetrahydro-2H-pyran-4-yl)thio)methyl)-3,4-dihydroquinazolin-7-yl)oxy)methyl)piperidin-1-yl)methyl)cyclobutoxy)isoindoline-1,3-dione], the DC50 (read-out: DC50) was below 100 nM.
Same read-out and setting: next, `O=C1CCC(Nc2ccc(OC3CC(N4CCC(COc5cc(F)c6c(=O)[nH]c(CSC7CCOCC7)nc6c5)CC4)C3)cc2)C(=O)N1` (stereo not shown) [Example 81, 3-((4-(3-(4-(((5-fluoro-4-oxo-2-(((tetrahydro-2H-pyran-4-yl)thio)methyl)-3,4-dihydroquinazolin-7-yl)oxy)methyl)piperidin-1-yl)cyclobutoxy)phenyl)amino)piperidine-2,6-dione]: below 100 nM.
Turning to `O=C1CCC(Nc2ccc(N3CCN(CCN4CCC(COc5cc(F)c6c(=O)[nH]c(CCC7CCOCC7)nc6c5)CC4)CC3)cc2)C(=O)N1` (stereo not shown) [Example 82, 3-((4-(4-(2-(4-(((5-fluoro-4-oxo-2-(2-(tetrahydro-2H-pyran-4-yl)ethyl)-3,4-dihydroquinazolin-7-yl)oxy)methyl)piperidin-1-yl)ethyl)piperazin-1-yl)phenyl)amino)piperidine-2,6-dione], the DC50 was below 100 nM.
Consider `O=C1CCC(Nc2ccc(N3CCN(CCN4CCC(COc5cc(F)c6c(=O)[nH]c(CS[C@H]7CC[C@H](O)CC7)nc6c5)CC4)CC3)cc2)C(=O)N1` (stereo partly shown) [Example 83, 3-((4-(4-(2-(4-(((5-fluoro-2-((((1r,4r)-4-hydroxycyclohexyl)thio)methyl)-4-oxo-3,4-dihydroquinazolin-7-yl)oxy)methyl)piperidin-1-yl)ethyl)piperazin-1-yl)phenyl)amino)piperidine-2,6-dione], for which, under “read-out: DC50”, the DC50 is below 100 nM.
For the molecule `O=C1CCC(Nc2ccc(CN3CCC(N4CCC(COc5cc(F)c6c(=O)[nH]c(CSC7CCOCC7)nc6c5)CC4)CC3)cc2)C(=O)N1` (stereo not shown) [Example 84, 3-((4-((4-(((5-fluoro-4-oxo-2-(((tetrahydro-2H-pyran-4-yl)thio)methyl)-3,4-dihydroquinazolin-7-yl)oxy)methyl)-[1,4′-bipiperidin]-1′-yl)methyl)phenyl)amino)piperidine-2,6-dione], where the note is “read-out: DC50”, the 50% degradation concentration (DC50) is below 100 nM.
As for `O=C1CCC(N2C(=O)c3ccc(N4CCC(N5CCN(Cc6cc(F)c7c(=O)[nH]c(CSC8CCOCC8)nc7c6)CC5)CC4)cc3C2=O)C(=O)N1` (stereo not shown) [Example 85, 2-(2,6-dioxopiperidin-3-yl)-5-(4-(4-((5-fluoro-4-oxo-2-(((tetrahydro-2H-pyran-4-yl)thio)methyl)-3,4-dihydroquinazolin-7-yl)methyl)piperazin-1-yl)piperidin-1-yl)isoindoline-1,3-dione], the DC50 (read-out: DC50) was below 100 nM.
The same measure, in the same setting: next, `O=C1CCC(Nc2ccc(N3CCC(N4CCN(CCc5cc(F)c6c(=O)[nH]c(CSC7CCOCC7)nc6c5)CC4)CC3)cc2)C(=O)N1` (stereo not shown) [Example 86, 3-((4-(4-(4-(2-(5-fluoro-4-oxo-2-(((tetrahydro-2H-pyran-4-yl)thio)methyl)-3,4-dihydroquinazolin-7-yl)ethyl)piperazin-1-yl)piperidin-1-yl)phenyl)amino)piperidine-2,6-dione]: below 100 nM; `O=C1CCC(Nc2ccc(OC3CCN(C4CCC(COc5cc(F)c6c(=O)[nH]c(CSC7CCOCC7)nc6c5)CC4)CC3)cc2)C(=O)N1` (stereo not shown) [Example 87, 3-((4-((1-(4-(((5-fluoro-4-oxo-2-(((tetrahydro-2H-pyran-4-yl)thio)methyl)-3,4-dihydroquinazolin-7-yl)oxy)methyl)cyclohexyl)piperidin-4-yl)oxy)phenyl)amino)piperidine-2,6-dione]: below 100 nM; `O=C1CCC(Nc2ccc(N3CCC(N4CC(N5CCC(COc6cc(F)c7c(=O)[nH]c(CSC8CCOCC8)nc7c6)CC5)C4)CC3)cc2)C(=O)N1` (stereo not shown) [Example 88, 3-((4-(4-(3-(4-(((5-fluoro-4-oxo-2-(((tetrahydro-2H-pyran-4-yl)thio)methyl)-3,4-dihydroquinazolin-7-yl)oxy)methyl)piperidin-1I-yl)azetidin-1-yl)piperidin-1-yl)phenyl)amino)piperidine-2,6-dione]: below 100 nM.
As for `O=C1CCC(Nc2ccc(N3CCC(N4CCC(COc5cc(F)c6c(=O)[nH]c(CSC7CCN(CC(F)(F)F)CC7)nc6c5)CC4)CC3)cc2)C(=O)N1` (stereo not shown) [Example 89, 3-((4-(4-(((5-fluoro-4-oxo-2-(((1-(2,2,2-trifluoroethyl)piperidin-4-yl)thio)methyl)-3,4-dihydroquinazolin-7-yl)oxy)methyl)-[1,4′-bipiperidin]-1′-yl)phenyl)amino)piperidine-2,6-dione], under “read-out: DC50”, the DC50 was below 100 nM.
Regarding `O=C1CCC(Nc2ccc(OC3CC(CN4CCC(COc5cc(F)c6c(=O)[nH]c(CS[C@H]7CC[C@H](O)CC7)nc6c5)CC4)C3)cc2)C(=O)N1` (stereo partly shown) [Example 90, 3-((4-(3-((4-(((5-fluoro-2-((((1r,4r)-4-hydroxycyclohexyl)thio)methyl)-4-oxo-3,4-dihydroquinazolin-7-yl)oxy)methyl)piperidin-1-yl)methyl)cyclobutoxy)phenyl)amino)piperidine-2,6-dione formate], for the setting “read-out: DC50”, the DC50 was below 100 nM.
